According to patent US8592421B2, “Cyclic bioisosters of purine system derivatives and a pharmaceutical composition based thereon” (priority 2003, dated 2013):

Tests used:
[1] = Chronic toxicity of suppositories: indexes of peripheral blood; format: in vivo, rats; set-up: Thrombocytes: unit not given here; conditions: male rats, suppositories rectally; for Basophiles / Juveniles: 1 month/2 months (one value given), control 0
[2] = Electrochemical activity: polarographic reduction on mercury dripping electrode; format: physicochemical; conditions: for number of electrons participating in the reduction reaction: calculated with Geirovsky-Ilkovich equation; for i: 2.0% sodium chloride background, 9·10^−4 M; for i / −E1/2: 37° C., forward trace, average for the group of compounds; for −E1/2: vs SCE

## O=c1[nH]n([C@@H]2O[C@H](CO)[C@@H](O)[C@H]2O)c(=O)c2nc(O)cnc12.[Na].[Na] [Compound 23, disodium salt of 2-hydroxy-7-(β-D-ribofuranosile)pyrazine[2,3—Cl]-6H-pyridazine-5,8-dione]
[1]; 50 mg/kg
  Basophiles: 0%
  Juveniles: 0%
[1]; 50 mg/kg, 1 month, control 0.8 ± 0.4
  Stab neutrophil: 1.1 ± 0.5%
[1]; 50 mg/kg, 1 month, control 2.2 ± 0.4
  REE: 1.7 ± 0.8 mm/h
[1]; 50 mg/kg, 1 month, control 2.8%0.3
  Reticulocytes: 2.7 ± 0.3%
[1]; 50 mg/kg, 1 month, control 4.0 + 0.3
  Eosinophiles: 3.6 ± 0.5%
[1]; 50 mg/kg, 1 month, control 5.6 ± 0.1
  Erythrocytes: 5.7 ± 0.1 mln/mm^3
[1]; 50 mg/kg, 1 month, control 10.5 ± 0.2
  Hemoglobin: 10.7 ± 0.1 mmol/L
[1]; 50 mg/kg, 1 month, control 17.4 ± 1.3
  Leukocyte: 15.5 ± 1.1 thousand/mm^3
[1]; 50 mg/kg, 1 month, control 45.9 ± 1.7
  Haematocrite: 47.7 ± 1.2%
[1]; 50 mg/kg, 1 month, control 81.4 ± 1.7
  Average volume of erythrocytes: 82.7 ± 1.6 Mkm^3
[1]; 50 mg/kg, 1 month, control 152 ± 10.2
  Coagulation, time: 150 ± 15 s
[1]; 50 mg/kg, 1 month, control 707 ± 23
  Thrombocytes: 659 ± 18
[1]; 50 mg/kg, 2 months, control 1.4 ± 0.2
  REE: 1.5 ± 0.1 mm/h
[1]; 50 mg/kg, 2 months, control 2.4 ± 0.4
  Stab neutrophil: 1.6 ± 0.2%
[1]; 50 mg/kg, 2 months, control 2.9 ± 0.2
  Reticulocytes: 2.8 ± 0.1%
[1]; 50 mg/kg, 2 months, control 4.4 + 1.2
  Eosinophiles: 4.0 ± 0.7%
[1]; 50 mg/kg, 2 months, control 6.1 ± 0.1
  Erythrocytes: 6.0 ± 0.2 mln/mm^3
[1]; 50 mg/kg, 2 months, control 11.4 ± 0.2
  Hemoglobin: 11.0 ± 0.1 mmol/L
[1]; 50 mg/kg, 2 months, control 19.1 ± 1.9
  Leukocyte: 17.6 ± 1.2 thousand/mm^3
[1]; 50 mg/kg, 2 months, control 45.9 ± 1.8
  Haematocrite: 46.5 ± 1.3%
[1]; 50 mg/kg, 2 months, control 74.6 + 1.9
  Average volume of erythrocytes: 77.5 ± 1.7 Mkm^3
[1]; 50 mg/kg, 2 months, control 316 ± 8
  Coagulation, time: 313 ± 17 s
[1]; 50 mg/kg, 2 months, control 593 ± 14
  Thrombocytes: 586 ± 28
[1]; 500 mg/kg
  Basophiles: 0%
  Juveniles: 0%
[1]; 500 mg/kg, 1 month, control 0.8 ± 0.4
  Stab neutrophil: 1.0 ± 0.3%
[1]; 500 mg/kg, 1 month, control 2.2 ± 0.4
  REE: 2.0 ± 0.3 mm/h
[1]; 500 mg/kg, 1 month, control 2.8%0.3
  Reticulocytes: 3.1 ± 0.1%
[1]; 500 mg/kg, 1 month, control 4.0 + 0.3
  Eosinophiles: 3.3 ± 0.7%
[1]; 500 mg/kg, 1 month, control 5.6 ± 0.1
  Erythrocytes: 5.7 ± 0.2 mln/mm^3
[1]; 500 mg/kg, 1 month, control 10.5 ± 0.2
  Hemoglobin: 10.7 ± 0.2 mmol/L
[1]; 500 mg/kg, 1 month, control 17.4 ± 1.3
  Leukocyte: 16.4 ± 1.1 thousand/mm^3
[1]; 500 mg/kg, 1 month, control 45.9 ± 1.7
  Haematocrite: 47.9 ± 1.1%
[1]; 500 mg/kg, 1 month, control 81.4 ± 1.7
  Average volume of erythrocytes: 83.5 ± 1.7 Mkm^3
[1]; 500 mg/kg, 1 month, control 152 ± 10.2
  Coagulation, time: 156 ± 11 s
[1]; 500 mg/kg, 1 month, control 707 ± 23
  Thrombocytes: 678 ± 18
[1]; 500 mg/kg, 2 months, control 1.4 ± 0.2
  REE: 1.7 ± 0.3 mm/h
[1]; 500 mg/kg, 2 months, control 2.4 ± 0.4
  Stab neutrophil: 1.6 ± 0.2%
[1]; 500 mg/kg, 2 months, control 2.9 ± 0.2
  Reticulocytes: 3.4 ± 0.1%
[1]; 500 mg/kg, 2 months, control 4.4 + 1.2
  Eosinophiles: 3.8 ± 1.3%
[1]; 500 mg/kg, 2 months, control 6.1 ± 0.1
  Erythrocytes: 6.4 ± 0.2 mln/mm^3
[1]; 500 mg/kg, 2 months, control 11.4 ± 0.2
  Hemoglobin: 12.3 ± 0.3 mmol/L
[1]; 500 mg/kg, 2 months, control 19.1 ± 1.9
  Leukocyte: 20.1 ± 1.7 thousand/mm^3
[1]; 500 mg/kg, 2 months, control 45.9 ± 1.8
  Haematocrite: 49.4 ± 1.9%
[1]; 500 mg/kg, 2 months, control 74.6 + 1.9
  Average volume of erythrocytes: 82.1 ± 1.4 Mkm^3
[1]; 500 mg/kg, 2 months, control 316 ± 8
  Coagulation, time: 3171 ± 12 s
[1]; 500 mg/kg, 2 months, control 593 ± 14
  Thrombocytes: 628 ± 23
[2]
  number of electrons participating in the reduction reaction: 3.72
[2]; pH 7.0
  i: 0.32 ± 0.03 mkA
  −E1/2: 0.16 ± 0.02 V
[2]; pH 7.2
  i: 0.33 ± 0.04 mkA
  −E1/2: 0.19 ± 0.02 V
[2]; pH 7.4
  i: 0.34 ± 0.03 mkA
  −E1/2: 0.175 ± 0.01 V
[2]; pH 7.6
  i: 0.34 ± 0.02 mkA
  −E1/2: 0.16 ± 0.015 V
[2]; polarograms of reverse stroke
  half-wave potential more positive at reverse stroke compared to forward stroke: 20.0 mV

## Nc1ncc2c(=O)[nH][nH]c(=O)c2n1 [Compound 36, 2-amino-pyrimido[4,5-d]-6H-pyridazine-5,8-dione]
[2]
  number of electrons participating in the reduction reaction: 3.5
[2]; pH 7.0
  i: 0.30 ± 0.05 mkA
  −E1/2: 0.08 ± 0.02 V
[2]; pH 7.2
  i: 0.26 ± 0.02 mkA
  −E1/2: 0.085 ± 0.015 V
[2]; pH 7.4
  i: 0.30 ± 0.03 mkA
  −E1/2: 0.085 ± 0.02 V
[2]; pH 7.6
  i: 0.30 ± 0.02 mkA
  −E1/2: 0.09 ± 0.02 V
